The source of these data is the pKa sets of Baltruschat and Czodrowski (2020).

SMILES strings stand for the structures.

As usually defined, the pKa is the negative logarithm of the acid dissociation constant. A low value points to a group that gives up its proton readily.

`COc1cc(O)ccc1C(=N)c1ccccc1` yielded a pKa (basic group) of 5.99.

Consider `N#CC(C#N)=NNc1ccc(C(=O)CCl)cc1`, for which, under “basic group”, the pKa was -0.76. `S=c1[nH]c(SCc2ccccc2)c(-c2ccccc2)[nH]1`: the pKa reads like this: (acidic group) 9.55; (basic group) -3.31. In turn, `NCCCCCc1ccncc1` registered a pKa (basic group) of 10.3. `[NH3+]CCCc1ccncc1`: the pKa (basic group) was found to be 5.51. Consider `CC([NH3+])c1nnn[nH]1` (stereo not drawn), for which the pKa (acidic group) is 2.63. As for `NS(=O)(=O)c1ccc(Cl)cc1`, the pKa (acidic group) worked out at 9.5. For the setting “acidic group”, `O=C(O)CCCc1c[nH]c[nH+]1` came in with a pKa of 4.26.

`O=C1O[C@@H]([C@@H](O)CO)C([O-])=C1O` displayed a pKa (acidic group) of 11.3.

`COc1ccc([N+](=O)[O-])c(CN)c1` came in with a pKa (basic group) of 8.72. Still for that read-out and setting: as for `CCCCNCCCC`, the figure is 11.3. As for `C[n+]1ccsc1N`, the pKa (acidic group) is 9.65.

As to `COc1ccc2c(c1)C([P+](c1ccccc1)(c1ccccc1)c1ccccc1)c1ccccc1-2` (stereo not drawn), where the note is “basic group”, the pKa stood at 9.09. On the same count and under the same terms, as for `Nc1nc([O-])c2ncn([C@@H]3C=C[C@H](CO)C3)c2n1`, the figure is 9.68; as for `C1CNCNC1`, 8.84. Still for that read-out and setting: the result for `CCCNc1ncnc2c1cnn2C` reads 4.25.

The molecule `NC(=O)C1=CN2CCC1CC2` had a pKa (acidic group) of 7.32. With `CC1(C)S[C@H]2C(C(=O)[O-])N=C(CCCC(N)C(=O)[O-])N2C1C(=O)[O-]` (stereo partly drawn), the pKa (basic group) is 10.3. `C[NH+](C)Cc1cc(Cl)ccc1O`: under “acidic group”, the pKa was found to be 8.02. On to `Cc1nn(-c2ccccc2)c(O)c1Cc1ccccc1`, for which, under “acidic group”, the pKa came to 11.8. Molecule `CCOC(=O)COc1ccc(Oc2ccc(O)c(C[NH3+])c2)c(Cl)c1Cl` registered a pKa (acidic group) of 8.55.

As for `C[NH2+]CCNCC[NH3+]`, the pKa (basic group) turned out to be 4.64.

On to `CC1CCC(O)(C(C(=O)O)c2ccc(-c3ccccc3)cc2)CC1` (stereo not drawn), for which the pKa (acidic group) amounted to 3.45. `Cc1ccc(N)cc1-c1cc([NH3+])ccc1C`: the pKa (basic group) was 3.8.

As for `Cc1ccc(C(=O)N(C)O)cc1`, the pKa (acidic group) was found to be 8.5. Still for that read-out and setting: the result for `N#Cc1ccc2c(c1)C([P+](c1ccccc1)(c1ccccc1)c1ccccc1)c1ccccc1-2` (stereo not drawn) reads 5.81; that for `Cc1ccc(O)c(C(=O)[O-])c1`, 14. Still for that read-out and setting: the result for `CC(C)CCC([NH3+])C(=O)O` (stereo not drawn) reads 3.06. As to `CCO[Si](C)(CN)OCC`, the pKa (basic group) worked out at 9.19. In the case of `O=C1NC(=O)C2(CCOc3ccc(F)cc32)N1` (stereo not drawn), for the setting “acidic group”, the pKa came to 8.3.

On to `N#Cc1cccc(S(N)(=O)=O)c1`, for which the pKa (acidic group) was 8.84.

With `CCOC(=O)c1ccccc1-n1nc(O)cc1C`, the pKa (acidic group) was determined as 12.3. On the same count and under the same terms, the result for `CC[NH+](CC)CC(=N\O)/C(C)=N/O` reads 8.5. On to `COc1ccc2[nH]c3c(C)nccc3c2c1`, for which the pKa reads like this: (acidic group) 14.6; (basic group) 7.09. As for `Nc1nccc(-c2csc(N)[nH+]2)n1`, the pKa (basic group) is 2.6. Still for that read-out and setting: the result for `C[n+]1c([S-])ccnc1[S-]` reads 6.96; that for `Oc1onc2c1CCN(Cc1ccccc1)CC2`, 8; that for `OCCc1cnc(P(c2[nH]c(CCO)c[nH+]2)c2[nH]c(CCO)c[nH+]2)[nH]1`, 5.75. On the same count and under the same terms, the result for `CCC/C(N)=C/C(=O)c1ccccc1` reads -1.12; that for `Nc1ccc(C(O)(c2ccccc2)c2ccc(N)cc2)cc1`, 5.83.

`C[C@@H]1CCC[C@H](C)N1CC(C)(C)O` had a pKa (basic group) of 10.7. Same read-out and setting: as for `COc1cccc([O-])n1`, the figure is 9.77; as for `CCN(CC)C(C)O` (stereo not drawn), 10.2; as for `CCCNCC(=O)Nc1c(C)cccc1C`, 8.01.

On to `CCN(CC)C(=S)NC(=O)c1ccc(F)cc1`, for which the pKa (acidic group) is 8.13. Same read-out and setting: as for `C[C@]12C[C@H](C(=O)O)OC(=O)[C@H]1CC[C@@]1(C)[C@@H]2[C@H]2CCC1(O)C(=O)O2`, the figure is 3.5.

In the case of `[O-]c1ccc(-c2ccc(O)cc2)cc1`, where the note is “acidic group”, the pKa turned out to be 14.1. On the same count and under the same terms, as for `c1ccc(Nc2nnn[nH]2)cc1`, the figure is 6.3; as for `O=C(O)c1ccc2cc3ccccc3cc2c1`, 4.18. Regarding `CC[Si](C)(C)CCCC(=O)O`, the pKa (acidic group) came out at 5.02. For the molecule `C[C@]1(O)CCCC[C@@H]1N`, under “basic group”, the pKa is 9.49. Regarding `CC1CC(C(=O)O)=[N+]([O-])C1(C)C` (stereo not drawn), the pKa (acidic group) is 2.85. In turn, `CCN(CC)c1nc(N)nc(N)n1` displayed a pKa (basic group) of 5.61. As for `NCC[NH2+]CCc1ccccc1`, the pKa (basic group) amounted to 6.59. Same read-out and setting: as for `Nc1ccc2nc3ccccc3cc2c1`, the figure is 5.88. As for `CCC[n+]1cccc2cc(O)ccc21`, for the setting “acidic group”, the pKa was 7.08. `N[C@@H]1C[C@@H]1N` registered a pKa (basic group) of 9.04. Same read-out and setting: as for `C(=C\c1ccncc1)/c1ccncc1`, the figure is 5.82; as for `Nc1ccc(Br)cc1`, 3.79. Where the note is “acidic group”, `CCCP(=O)(O)CCC` showed a pKa of 3.33. In the case of `c1ccc(-c2ccn[nH]2)[nH+]c1`, the pKa (basic group) is -1.1.

For the setting “acidic group”, `O=c1c2[nH]cnc2ncn1[O-]` registered a pKa of 10.1. The same measure, in the same setting: the result for `CC1(C)OC(=O)C[C@H]2[C@@H](C(=O)O)[NH2+]C[C@H]21` reads 2.27. As for `NCc1ccncc1`, the pKa (basic group) came to 8.3.

Where the note is “acidic group”, `C[N+](C)(C)CCc1cccc(O)c1` came in with a pKa of 9.43.

In turn, `CN(C)CCCO` came in with a pKa (basic group) of 9.76.

As for `CC(=O)c1cccnc1`, the pKa (basic group) stood at 3.32. The same measure, in the same setting: as for `CSc1nc2cncnc2n1C`, the figure is 2.98. In turn, `Oc1cc[nH+]c(O)c1` gave a pKa (acidic group) of 1.37. Same read-out and setting: the result for `CCCC1(CCC)SC(=O)NC1=O` reads 6.37. In turn, `c1ccc(CNc2nc[nH+]c3[nH]cnc23)cc1` returned a pKa (basic group) of -1. The same measure, in the same setting: as for `CCCc1ccccn1`, the figure is 5.97. In turn, `Cc1cc(C)c(C)c(C(=O)O)c1C` came in with a pKa (acidic group) of 3.43. Take `O=P(C1CCCCC1)(C1CCCCC1)C1CCCCC1`: the pKa is, setting by setting: (acidic group) 13.7; (basic group) 5.04. For the molecule `NCCC(=O)N[C@@H](Cc1cnc[nH]1)C(=O)[O-]`, where the note is “basic group”, the pKa worked out at 9.35. In turn, `O=S(Cc1ccccc1)c1cnn[nH]1` (stereo not drawn) registered a pKa (acidic group) of 6.09. For `Oc1cccc2ccnnc12`, the pKa was 8.25 (acidic group) and 2.72 (basic group).

For the setting “basic group”, `C#CCN(CC#C)CC#C` came in with a pKa of 3.04. `CCCCOC(=S)NC(C)=O` had a pKa (acidic group) of 9.25. Turning to `CON`, the pKa (basic group) was 4.62.

For the setting “basic group”, `CN/C=[NH+]/c1cccc(-c2csc(N=C(N)N)n2)c1` showed a pKa of 6.29. With `Cc1cccnc1/C=N/O`, the pKa (acidic group) came to 10.5. The same measure, in the same setting: the result for `Cn1c([O-])nc(=O)c2[nH]cnc21` reads 11.7. With `CN(C)CCCCNC(=O)/C=N/[O-]`, the pKa (basic group) was found to be 10.1. As for `c1ccc(-c2nc3cnccc3[nH]2)cc1`, the pKa runs as follows: (acidic group) 10.3; (basic group) 6. The molecule `CC1=C(CC(C)NCC(O)c2ccc(Cl)cc2)CCC1(C)C` (stereo not drawn) had a pKa (basic group) of 8.55. On the same count and under the same terms, the result for `CCCN1C=CC(=CC=C2C=CC(=O)C=C2)C=C1` reads 8.5. For the molecule `CNc1cccnc1`, the pKa (basic group) amounted to 6.41.

In turn, `Cc1cc([N+](=O)[O-])ccc1O` registered a pKa (acidic group) of 7.1. On to `CCOc1ccc2[nH]c(C(C)C)nc2c1`, for which, for the setting “basic group”, the pKa came out at 6.17.

With `CCN(CC)C(=S)NC(=O)c1cccc(C)c1`, the pKa (acidic group) was 8.36. `CCCCCCCCCCCCCCN(CC(C)O)CC(O)CC` (stereo not drawn): the pKa (basic group) is 6.1. With `C[n+]1c2ccccc2cc2ccc(N)cc21`, where the note is “acidic group”, the pKa was 11.8.

Under “basic group”, `Nc1ccc(-c2cnc(-c3ccc(Cl)cc3)o2)cc1` returned a pKa of 3.52. `NC(=O)CC(=O)c1ccncc1`: the pKa (acidic group) worked out at 7.91. Turning to `OCCc1cnc(P(c2ncc(CCO)[nH]2)c2ncc(CCO)[nH]2)[nH]1`, where the note is “basic group”, the pKa was found to be 7.7. Same read-out and setting: the result for `CN1CCCC[C@H]1c1cccnc1` reads 5.42; that for `CC(=O)c1ccc(/N=N/c2c(N)n[nH]c2N)cc1`, 3.32; that for `COc1cnnc2ccccc12`, 3.21. Still for that read-out and setting: the result for `COc1ccc(C2NCCS2)cc1` (stereo not drawn) reads 5.45; that for `CCC(O)CN(CCO)C(C)(C)C` (stereo not drawn), 9.4; that for `CC[NH+](CC)Cc1cn2nc(-c3ccccc3)cc(C)c2n1`, 2.2. For the molecule `Cc1cccc(O)c1C`, for the setting “acidic group”, the pKa was determined as 10.5. Under “acidic group”, `COc1cccc(-c2nnn[nH]2)c1` gave a pKa of 3.91.

Where the note is “basic group”, `CCc1nc(C)c[nH]1` came in with a pKa of 8.5. The same measure, in the same setting: the result for `C[C@@H]1N[C@@H]1C` reads 5.34. As to `CC(C)C1C(=O)c2ccccc2C1=O`, for the setting “acidic group”, the pKa stood at 7.4. For `c1ccc(-c2ccnc3c2ccc2cccnc23)cc1`, the pKa (basic group) was found to be 4.9. In turn, `CCC(CC)C(=O)O` yielded a pKa (acidic group) of 4.73. Under “basic group”, `NC(CCc1ccc([N+](=O)[O-])cc1)C(=O)[O-]` (stereo not drawn) gave a pKa of 9.1. The same measure, in the same setting: as for `COCCNc1cccc(C)c1`, the figure is 4.29. For `O=C(O)c1ccc[se]1`, under “acidic group”, the pKa was 3.43.

With `O=C([O-])C[NH+](CC(=O)[O-])Cc1cc(Cl)cc(C[NH+](CC(=O)[O-])CC(=O)[O-])c1O`, the pKa (acidic group) turned out to be 6.27. Still for that read-out and setting: the result for `Cc1c(-c2ccccc2)nn(-c2ccccc2)c1O` reads 7.8. With `CCOCCN(C)c1ccccc1`, the pKa (basic group) was found to be 4.8. Consider `C(=C/c1nnnn1-c1ccccc1)/c1ccccc1`, for which the pKa (basic group) was -2.81.

Regarding `OCCc1cnc(P(c2ncc(CCO)[nH]2)c2[nH]c(CCO)c[nH+]2)[nH]1`, under “basic group”, the pKa came to 6.84. On the same count and under the same terms, as for `N=C(N)Nc1ccccc1`, the figure is 10.8.

`N#Cc1ccccc1O`: for the setting “acidic group”, the pKa turned out to be 7.32. For the molecule `CN(C(=O)c1ccccc1)c1ccccn1`, for the setting “basic group”, the pKa was determined as 1.44.

Turning to `Cc1ccc(C(=O)C[n+]2cccc3c4ccccc4ccc32)cc1`, under “acidic group”, the pKa was found to be 11.7.

Turning to `CP(=O)(Cc1ccccc1)c1ccccc1` (stereo not drawn), under “basic group”, the pKa is -1.82. Still for that read-out and setting: the result for `C=C(C)[C@@H]1CN[C@H](C(=O)[O-])[C@@H]1CC(=O)[O-]` reads 10.2.

Molecule `O=C(O)[C@@H]1O[C@H](Oc2ccc3oc4cccc(O)c4c(=O)c3c2)[C@@H](O)[C@H](O)[C@H]1O` registered a pKa (acidic group) of 3.94. Where the note is “basic group”, `CCOC(=O)CC(NC)c1ccccc1` (stereo not drawn) came in with a pKa of 8.23. Take `CCCCCCCCCCCN`: the pKa (basic group) amounted to 10.6. For the setting “acidic group”, `CC(C)c1cc(O)c(=O)ccc1Br` returned a pKa of 6.53.

As for `C=CC[NH+](CC=C)CCCNC(=O)/C=N/O`, the pKa (acidic group) worked out at 8.14. In the case of `CSc1cnc2ccccc2n1`, the pKa (basic group) turned out to be 0.26. In the case of `[NH3+]c1ccc(CC(=O)O)cc1`, under “acidic group”, the pKa amounted to 3.49.

Under “acidic group”, `Oc1ccc(Cl)c(Cl)c1` gave a pKa of 8.58.

The molecule `CN(C)c1cccc2cccc(N(C)C)c12` gave a pKa (basic group) of 12.1. Regarding `O=COO`, the pKa (acidic group) was 7.1.
